Measurements published in US20040266882A1 (priority 2001, published 2004).
Read-outs that look alike come from different tables or passages of the source.

Assays:
C6 cells [1] = conditions: cells loaded with 0.1 μg/ml DOX alone
Description: Cells were grown in monolayers as described above. […] Control cells received media alone.

B16F10 cells = conditions: for lung metastatic burden (lung weight increase, number of lung metastasis), single agent: fluoxetine 0.04 mg/kg daily orally alone, or Doxorubicin 10 mg/kg i.v. alone
C-26 cells = experiment: Solid tumor model, C-26 cells injected into footpad; format: in vivo, mice; conditions: for solid tumor volume with time, single agent: fluoxetine 0.04 mg/kg daily orally alone, or MMC or DOX 5 mg/kg i.v. alone
Description: In the solid tumor model, C-26 cells were injected into the animal's right-hind footpad.
In the solid tumor model, Mitomycin C (MMC) and Doxorubicin (DOX), were tested separately, each at a dose of 5 mg/kg body.

[2] = test system: PANC-1, C6, MCF-7, U2OS and HT1080; conditions: 48 hours; for reduction in cell survival, drug alone: non-resistant cell lines, 0.1 μg/ml DOX or 0.3 μg/ml VIN alone
Description: Studies similar in general to those outlined in the previous section, were conducted with five cell lines selected for this task (PANC-1, C6, MCF-7, U2OS and HT1080), increasing the length of the experiment to 48 hours. The studies were done with DOX and with Vinblastine (VIN or VLB).

fibrosarcoma cells = conditions: doses equivalent to 20-40 mg/M^2; cited from earlier work
[3] = daily dose; cited from earlier work
PANC-1 cells = test system: PANC-1 cells; design: effect on cell survival: dose or concentration left out as unconfirmed; conditions: 24 hours; for enhancement in cell death by the combination treatment: vs drug alone
[4] = test system: concavalin A-stimulated normal lymphocytes; conditions: doses equivalent to 20-40 mg/M^2; cited from earlier work
C6 cells [5] = test system: C6 cells; design: effect on cell survival: dose or concentration left out as unconfirmed; conditions: 24 hours; for enhancement in cell death by the combination treatment: vs drug alone
[6] = […] μM fluoxetine + 0.1 μg/ml Doxorubicin
[7] = […] μM fluoxetine + 30 μg/ml Mitomycin C

In the case of `COc1cccc2c1C(=O)c1c(O)c3c(c(O)c1C2=O)C[C@@](O)(C(=O)CO)C[C@@H]3O[C@H]1C[C@H](N)[C@H](O)[C@H](C)O1` [Doxorubicin], the “depletion of intracellular DOX at 2 hours” value (C6 cells [1]) is reported as 100%, the “lung metastatic burden (lung weight increase, number of lung metastasis), single agent” value (B16F10 cells) is reported as “only a mild reduction” and the “solid tumor volume with time, single agent” value (“solid tumor volume with time” for short) (C-26 cells) is reported as “increases fast and exponentially”. For the same compound, the “reduction in cell survival, drug alone” value [2] was 50%.
In the case of `CNCCC(Oc1ccc(C(F)(F)F)cc1)c1ccccc1` (stereo not shown) [fluoxetine, N-methyl 3-(p-trifluoromethylphenoxy)-3-phenylpropylamine], the “survival, single agent” value (B16F10 cells; CS alone or CT alone, 75-days experiment) is reported as “died rather early”, the “lung metastatic burden, combination treatment” value (B16F10 cells; fluoxetine 0.04 mg/kg daily orally + Doxorubicin 10 mg/kg i.v.) is reported as “substantial reduction” and the “lung metastatic burden (lung weight increase, number of lung metastasis), single agent” value (B16F10 cells) is reported as “highest metastatic burden”. For the same compound, the “survival, combination treatment” value (B16F10 cells; fluoxetine + Doxorubicin, 75-days experiment) was “long survivors”, the prolongation of survival (C-26 cells; DOX+CS vs saline, CS alone and DOX alone) was 3 fold and the prolongation of survival (C-26 cells; MMC+CS vs saline, CS alone and MMC alone) was 2 fold. For the same compound, the “solid tumor size and growth, combination therapy” value (C-26 cells; fluoxetine 0.04 mg/kg daily orally + DOX 5 mg/kg i.v.) was “tumors are substantially smaller”, the “solid tumor size and growth, combination therapy” value (C-26 cells; fluoxetine 0.04 mg/kg daily orally + MMC 5 mg/kg i.v.) was “tumors are substantially smaller” and the “solid tumor volume with time” value (C-26 cells) was “increases fast and exponentially”. For the same compound, the “effect on proliferation of fibrosarcoma cells” value (fibrosarcoma cells) was “promotes the proliferation”, the “toxicity to the cells, fluoxetine alone” value ([2]; fluoxetine alone, 0-15 μM) was “not toxic” and the “known, acceptable safety limit” value [3] was 80 mg/M^2. For the same compound, the “enhancement in cell death by the combination treatment” value (“enhancement in cell death” for short) (PANC-1 cells; [6]) was 3-4 fold, the “enhancement in cell death” value (PANC-1 cells; [7]) was 3-4 fold and the “effect on cell survival” value (PANC-1 cells; […] μM fluoxetine alone) was “does not affect cell survival at all”. The “effect on proliferation of concavalin A-stimulated normal lymphocytes” value [4] was “inhibits the proliferation”, the “enhancement in cell death” value (C6 cells [5]; [6]) was 3-4 fold and the “enhancement in cell death” value (C6 cells [5]; [7]) was 3-4 fold. The “effect on cell survival” value (C6 cells [5]; […] μM fluoxetine alone) was “does not affect cell survival at all”.
With `CO[C@@]12[C@H](COC(N)=O)C3=C(C(=O)C(C)=C(N)C3=O)N1C[C@@H]1N[C@@H]12` [Mitomycin C] the “solid tumor volume with time” value (C-26 cells) was “increases fast and exponentially”.
In the case of `CC[C@]1(O)C[C@@H]2CN(CCc3c([nH]c4ccccc34)[C@@](C(=O)OC)(c3cc4c(cc3OC)N(C)[C@H]3[C@@](O)(C(=O)OC)[C@H](OC(C)=O)[C@]5(CC)C=CCN6CC[C@]43[C@@H]65)C2)C1` [Vinblastine], the “reduction in cell survival, drug alone” value [2] is reported as 50%.
